Laboratory results taken from the NIST ThermoML archive (doi:10.1016/j.fluid.2018.08.017).

What was measured:
[1] = refractive index (Na D-line) (dimensionless); conditions: 101.33 kPa, Liquid, Standard Abbe refractometry
[2] = Liquid; for speed of sound: Single path-length method; for mass density: Vibrating tube method
[3] = wn = mass fraction of the nth substance listed; conditions: 101 kPa, Liquid, w1 = 1; for speed of sound: Single path-length method; for mass density: Vibrating tube method

CCCCn1cc[n+](C)c1.F[B-](F)(F)F [1-butyl-3-methylimidazolium tetrafluoroborate]
Conditions	refractive index
[1], 293.15 K	1.423

[2]
Conditions	mass density, 101 kPa [kg/m3]	mass density, 101.33 kPa [kg/m3]	speed of sound, 101 kPa [m/s]	viscosity, 101 kPa [mPa·s]
293.15 K	1206	–	1576.7	129.34
298.15 K	1202.4	–	1564.7	98.95
303.15 K	1198.8	–	1552.8	77
308.15 K	1195.2	–	1541.2	60.9
313.15 K	1191.7	–	1529.6	49.2
318.15 K	1188.1	1188.2	1518.2	40.27
323.15 K	1184.6	–	1506.9	33.44
328.15 K	1181.1	–	1495.7	28.12
333.15 K	1177.6	–	1484.5	23.94
338.15 K	1174.2	–	1473.2	20.62
343.15 K	1170.7	–	1461.7	17.92

CCCCn1cc[n+](C)c1.F[B-](F)(F)F [1-butyl-3-methylimidazolium tetrafluoroborate] + CN1CCCC1=O
[3]
Conditions	mass density [kg/m3]	speed of sound [m/s]	viscosity [mPa·s]
293.15 K	1206	1576.7	129.34
298.15 K	1202.4	1564.7	98.95
303.15 K	1198.8	1552.8	77
308.15 K	1195.2	1541.2	60.9
313.15 K	1191.7	1529.6	49.2
318.15 K	1188.1	1518.2	40.27
323.15 K	1184.6	1506.9	33.44
328.15 K	1181.1	1495.7	28.12
333.15 K	1177.6	1484.5	23.94
338.15 K	1174.2	1473.2	20.62
343.15 K	1170.7	1461.7	17.92

CN1CCCC1=O [N-methylpyrrolidone]
Conditions	refractive index
[1], 298.15 K	1.469

[2], 101 kPa
Conditions	mass density [kg/m3]	speed of sound [m/s]	viscosity [mPa·s]
293.15 K	1034.1	1565.7	1.786
298.15 K	1029.7	1546.1	1.693
303.15 K	1025.2	1526.7	1.564
308.15 K	1020.8	1507.5	1.448
313.15 K	1016.3	1488.3	1.346
318.15 K	1011.9	1469.2	1.258
323.15 K	1007.4	1450.4	1.176
328.15 K	1002.9	1431.4	1.103
333.15 K	998.4	1412.8	1.037
338.15 K	993.9	1394.4	0.9769
343.15 K	989.4	1376	0.923

CCCCCC [hexane]
Conditions	refractive index
[1], 298.15 K	1.372

Conditions	mass density [kg/m3]
[2], 313.15 K, 101.33 kPa	641.2
